Like-named read-outs stand apart in the source and are kept apart here.
How the values were obtained:
human chondrocyte cells = test: NTMP hydrolysis in human chondrocyte cells; type: cell-based; conditions: 0.1 mM, NTMP 0.1 mM, OD 405 nm
Experimental: Increased chondrocyte PPi production, and PPi-generating NPP1 activity are linked with CPPD crystal deposition disease, common in aging and osteoarthritic cartilage. […] Its hydrolysis by endogenous enzyme (NPP1) from matrix vesicles (MVs), human chondrocytes or cartilage pieces results in elevated OD at 405 nm.
In order to test the ability of the NPP1 inhibitor to inhibit NTMP hydrolysis in human chondrocyte cells, human chondrocytes 1.5×10^4 per well were seeded in 96 well plate in 100 μl DMEM/10% fetal calf serum (FCS). One day before the experiment, the medium was changed to DMEM only (w/o phenol red). Human chondrocytes were incubated with 0.1 mM NTMP in TES, pH 7.37, in the presence or absence of 0.1 mM of the NPP1 inhibitor for 0, 15′, 30′, 1, 2, 4, 6, 18 hours at 37° C. At each time point the reaction was read at 405 nm.

Aβ40-Zn^2+ aggregates = target: T1, Aβ40-Zn^2+ aggregates (Homo sapiens, UniProt P05067); test: TEM, size reduction of Aβ40-Zn^2+ aggregates; conditions: 6 eq, 7 h; aggregates 100 nm to 2.5 μm before
T1 construct: purchased GL-Biochem (Shanghai)
Experimental: TEM sample was prepared from 200 μM Aβ-M^2+ 1:1 solution (pH 7.4 or 6.6 for Aβ40-Zn^2+ or Aβ40-Cu^2+, respectively) incubated in a rotary shaker for 9 days at RT. A cloudy mixture with massive sediments was obtained. TEM samples were prepared by diluting the stock solutions with PBS to a concentration of 25 μM with or without APCPP-γ-S. In this way four samples were obtained: (i) 25 μM Aβ40-Cu^2+; (ii) 25 μM Aβ40-Cu^2+ containing 150 μM APCPP-γ-S; (iii) 25 μM Aβ40-Zn^2+; and (iv) 25 μM Aβ40-Zn^2+ containing 150 μm APCPP-γ-S. The mixtures were incubated in a rotary shaker for 7 h and after vortexing, a sample was transferred to a gold grid, for Aβ40-Cu^2+, or a copper grid for Aβ40-Zn^2+. The wet grid was left to dry at RT overnight.
To validate the DLS data indicating the efficiency of APCPP-γ-S, we monitored the dissolution of Aβ40-M^2+ aggregates in the presence of APCPP-γ-S by TEM. Aβ40-Cu^2+ and Aβ40-Zn^2+ 1:1 complexes were incubated for 9 days at RT, resulting in a significant sediment. Aβ40-Cu^2+ aggregates of 2.5 μm in diameter (FIG. 6A) and Aβ40-Zn^2+ aggregates of different sizes from 100 nm to 2.5 μm (FIG. 6C) were observed by TEM measurements. APCPP-γ-S (6 eq) was then added and the mixture was incubated for 7 h.

[1] = Stability in human blood serum; type: in vitro ADME
[2] = Pharmacokinetics and BBB permeation after IV injection in mice; type: in vivo, F1 (C57B×S29) mice
Experimental: As shown in Example 14, APCPP-γ-S is stable in human blood serum as well as in brain, liver and blood from mice. In this study, we evaluated APCPP-γ-S blood-brain barrier (BBB) permeability and pharmacokinetics in F1 (C57B×S29) mice. APCPP-γ-S was injected intravenously (IV) at 40 mg/Kg into four mice (each mouse was injected with 1.5 mg of APCPP-γ-S). The mice were sacrificed after 30 minutes (2 of the 4) or 90 minutes (thr other 2 of the 4), and samples from brain and blood were taken to analysis. Each sample was collected into 0.5 ml saline, sonicated and extracted with chloroform, applied onto an anion exchange cartridge, and freeze-dried. The resulting residue was analyzed by HPLC. We detected the presence of 67.5 and 64% of the injected amount of APCPP-γ-S in the blood samples after 30 and 90 minutes, respectively. In the brain sample we obtained ca. 2% permeability (data not shown).

Aβ40-Cu^+ complex = target: T2, Aβ40-Cu^+ complex (Homo sapiens, UniProt P05067); test: Re-solubilization of Aβ40-Cu^+ aggregates monitored by 1H-NMR; conditions: 6 eq, pD 7.8
T2 construct: purchased GL-Biochem (Shanghai)
Experimental: ^1H-NMR spectrum of 0.25 mM Aβ40 (concentration determined by UV) in 10 mM TRIS-d11 (500 μl, pD 11) was measured at 278 K. The pD was adjusted to 7.8 by the addition of 0.1 N DCl (33 μl), and ^1H-NMR spectrum was measured (700 MHz, 80 scans), as well as after each of the following additions: (A) 8.3 mM Cu^+ (15 μl, 1 eq); (B) 6 mM compound 7 (21 μl, 1 eq); (C) 6 mM compound 7 (42 μL, 3 eq); (D) of 6 mM APCPP-γ-S (62.4 μl, 6 eq); (E) of 6 mM APCPP-γ-S (62.4 μl, 9 eq). At the end of the titration, the acetonitrile concentration was 2% (v/v) in 735.8 μl, pD 8.4.
APCPP-γ-S, the most promising chelator identified here, was used also to resolubilize Aβ40-Cu^+ aggregates. This process was monitored by ^1H-NMR similar to that described above for Aβ28. First, the ^1H-NMR spectrum of 0.25 mM Aβ40 monomer at 278 K, pD 11, was measured (FIG. 7a), after adjustment of Aβ40 solution pD to 7.8 the signals shifted and broadened (FIG. 7b). Upon addition of 1 eq 8.3 mM Cu(CH3CN)4PF6 the signals dramatically further broadened (FIG. 7c).

primary neurons = test: Protection of primary neuron culture against Aβ42 insult (trypan blue count); type: cell-based; conditions: Primary neuron
Experimental: Primary neuron cells were cultured in 96 wells plate (95×10^4 per well). After 24 h the cells were treated with 50 μM Aβ42 and various concentrations of APCPP-γ-S (0.04-25 μM) for 48 h. Cell viability was measured by dyeing the cells with trypan blue and counts of the vital cells. The results shown are the mean±S.D of three independent experiments in triplicate (*P<0.05, vs. Aβ42 treatment).
Primary neurons cells were cultured in 96 wells plate (95×10^4 per well). […] Cell viability was measured by dyeing the cells with trypan blue and counts the vital cells. The results shown are the mean±S.D of three independent experiments in triplicate (*P<0.05, **P<0.01 vs. Aβ42 treatment).
In this study, the neuroprotective activity of APCPP-γ-S in neuronal cells exposed to toxic Aβ42 was evaluated. At first we measured the number of the viable neuronal cells after treatment with Aβ42 (5-50 μM) (FIG. 11). At 50 μM Aβ42, 50% of the neuronal culture remained vital. Next, we measured the protective effect of APCPP-γ-S: primary neurons were treated with APCPP-γ-S (0.04-25 μM) and 50 μM Aβ42 for 48 h.

T2 sequence (P05067 672-711, one chain of several): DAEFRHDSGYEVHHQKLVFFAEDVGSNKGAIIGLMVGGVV
T1 sequence (P05067 672-711 limits assumed): as the sequence (P05067 672-711, one chain of several) above

| SMILES | inhibition of NTMP hydrolysis in human chondrocyte cells (human chondrocyte cells) | aggregate size after addition (Aβ40-Zn^2+ aggregates) | stability in human blood serum [1] | injected amount present in blood ([2]; IV 40 mg/Kg, after 30 minutes) | permeability into brain ([2]; IV 40 mg/Kg, brain sample) | injected amount present in blood ([2]; IV, after 90 minutes) | effect on Aβ40-Cu^+ 1H-NMR spectrum (Aβ40-Cu^+ complex) | IC50 (primary neurons; 48 h, read-out: concentration that maintained 50% of neuronal cells) | IC50 (primary neurons; read-out: IC50 protection from Aβ42 insult) |
| --- | --- | --- | --- | --- | --- | --- | --- | --- | --- |
| Nc1ncnc2c1ncn2[C@@H]1O[C@H](COP(O)(=S)OP(=O)(O)C(Cl)(Cl)P(=O)(O)O)[C@@H](O)[C@H]1O (single isomer, unassigned; isomer a) [APPCCl2P-α-S (isomer A), adenosine 5′-[Pα-thio]-β,γ-(dichloromethylene)triphosphate] | inhibit the hydrolysis of NTMP |  |  |  |  |  |  |  |  |
| Nc1ncnc2c1ncn2[C@@H]1O[C@H](COP(=O)(O)CP(=O)(O)OP(O)(O)=S)[C@@H](O)[C@H]1O [APCPP-γ-S, adenosine 5′-[Pγ-thio]-α,β-methylenetriphosphate] |  | less than 500 nm | stable | 67.5% | ca. 2% | 64% | all signals reappeared | 200 nM | 200 nM |

Source: US20140378408A1, “NUCLEOSIDE 5'-PHOSPHOROTHIOATE ANALOGUES AND USES THEREOF” (BAR-ILAN UNIVERSITY, an Israeli University, priority 2012, published 2014)
